Data set [1] deals with hypercholesterolaemic rabbits. In words: Antiatherosclerotic activity tests: plasma lipoprotein concentrations. It counts as in vivo, New Zealand rabbits. To be noted: thirty days, carnitine(s) 400 mg/kg, quercetin 50 mg/kg. The text has this: (§1) In these tests, experimental atherosclerosis was induced in rabbits by administering 0.5% of cholesterol by weight together with the standard diet.
After thirty days' treatment, a blood sample was taken from the central artery of the ear in each animal and used to assay the lipoproteins present according to the method described by Hatch (Hatch F. T., Advan. Lipid Res., 6, 1, 1968).

Data set [2] relates to platelet aggregation induced by collagen. In words: Platelet aggregation tests (collagen-induced, Born photometric method). It counts as cell-based, human (healthy volunteers). To be noted: 10 minutes' incubation. The procedure:
Blood samples taken from healthy volunteers were used for these tests.
The blood samples were treated with sodium citrate and centrifuged for 8 minutes at 100 rpm. The number of platelets was counted and brought to a fixed level of […] by adding platelet poor plasma (PPP) where necessary.
Platelet aggregation was induced using collagen (2.5 μg/ml, 5 μg/ml) as the aggregating agent and determined photometrically according to the method described by Born (Born G. V. R., Nature, 194, 927, 1962).
Platelet aggregation was measured in baseline conditions and after 10 minutes' incubation with quercetin or propionyl L-carnitine or with a combination of quercetin and propionyl L-carnitine in the same amounts.
The propionyl L-carnitine doses were 10 μg and 20 μg/ml, while the quercetin doses were 0.1 μg and 0.25 μg/ml.

Data set [3] deals with experimental atherosclerosis in rabbits. As to the kind of experiment: Antiatherosclerotic activity tests: biochemical and histological parameters, arteriosclerotic lesions of heart and aorta. It counts as in vivo, New Zealand rabbits. As to conditions: rabbit, cholesterol-enriched diet, thirty days; carnitine(s) 400 mg/kg, quercetin 50 mg/kg. The procedure: as §1
The liver was then removed from each animal and used to assay total cholesterol and triglycerides according to the method of Dehoff (Dehoff J. L., Clin. Chem., 24, 433, 1978) and Levy (Levy A., Advances in Automated Analysis, 497—Thurman—Miami, 1972). Arteriosclerotic lesions at the level of the heart and aorta were assessed according to the Klurfield method (Klurfield D. M., J. Med., 10, 35, 1979), grading them from I to IV according to the severity of the damage detected.
The greatest degree of protective activity, however, is that achieved when carnitine and quercetin are administered in combination.

The test system of data set [4] is mice treated with mitomycin C. In words: Tests on leukopenia induced by mitomycin C. It counts as in vivo. To be noted: for Number of leukocytes after 5 days / Number of leukocytes after 10 days / Number of leukocytes after 12 days / protective effect against leukopenia and toxicity of mitomycin C (in words): mice; for Number of leukocytes after 5 days / Number of leukocytes after 10 days / Number of leukocytes after 12 days / % Mice surviving after 5 days / % Mice surviving after 10 days / % Mice surviving after 12 days: mitomycin C 50 μg/mouse i.p. five days, oral carnitine(s) 300 mg/kg, quercetin 100 mg/kg; for protective effect against leukopenia and toxicity of mitomycin C (in words): oral. The procedure: To evaluate the immunostimulatory effect of the combination of propionyl L-carnitine or carnitine mixture plus quercetin, the effect of these products was evaluated on the toxic and immunosuppressive activity induced by mitomycin C.

Data set [5] has as its system anaphylactic shock in guinea-pigs. In words: Anaphylactic shock tests (horse serum sensitisation). It counts as in vivo. To be noted: oral; for Surviving/treated animals: carnitine(s) 300 mg/kg, quercetin 50 mg/kg. As to the method: These tests were performed using male albino guinea-pigs with a mean weight of 300 g; the animals received intraperitoneal injections of 1 cc of horse serum diluted 1:10.
After twenty-five days, intravenous injection of 1 cc of horse serum triggered anaphylactic shock with onset of bronchospasm and death of the animals. Five days before the shock-triggering injection, the sensitised animals were treated orally either with propionyl L-carnitine (300 mg/kg), or with carnitine mixture (300 mg/kg), or with quercetin (50 mg/kg), or with various combinations of these compounds.

The nature of data set [6]: Toxicology, single oral administration in the rat. As to conditions: up to 4 g/kg.
Data set [7] deals with oedema induced in the rat paw by carrageenin. In words: Anti-inflammatory activity tests: carrageenin-induced oedema of the rat paw. It counts as in vivo. As to conditions: for anti-oedema / anti-inflammatory effect (in words): rat paw, carrageenin. As to the method: To this end, 0.1 cc of a 1% carrageenin solution (Sigma, St, Louis, USA) were injected in the subplantar zone of the rat paw. The volume of oedema of the paw was measured by means of a mercury plethysmograph at intervals of one hour over the four-hour period following injection of carrageenin. One hour prior to injection, of carrageenin the animals received oral administrations either of propionyl L-carnitine (300 mg/kg and 150 mg/kg), or carnitine mixture (acetyl L-carnitine, propionyl L-carnitine, isovaleryl L-carnitine; 300 mg/kg and 150 mg/kg), or quercetin (100 mg/kg and 50 mg/kg), or various combinations of these compounds.
For orientation: The carrageenan paw model is a standard test of acute inflammation.

In data set [8] the test system is hypercholesterolaemic rabbits. As to the kind of experiment: Antiatherosclerotic activity tests: liver total cholesterol and triglycerides. It counts as in vivo, New Zealand rabbits. To be noted: thirty days, carnitine(s) 400 mg/kg, quercetin 50 mg/kg. The procedure: The liver was then removed from each animal and used to assay total cholesterol and triglycerides according to the method of Dehoff (Dehoff J. L., Clin. Chem., 24, 433, 1978) and Levy (Levy A., Advances in Automated Analysis, 497-Thurman-Miami, 1972). Arteriosclerotic lesions at the level of the heart and aorta were assessed according to the Klurfield method ([…]. Med., 10, 35, 1979), grading them from I to IV according to the severity of the damage detected.

Where [9] appears, read: rat, oral, carnitine(s) 300 mg/kg and/or quercetin 100 mg/kg.
Setting [10] is: rat, oral, carnitine(s) 150 mg/kg and/or quercetin 50 mg/kg.

Consider two molecules from patent US20030206895A1, “Antioxidant composition comprising propionyl L-carnitine and a flavonoid against throm-bosis and atherosclerosis” (priority 1998, published 2003).

Regarding `CCC(=O)O[C@H](CC(=O)[O-])C[N+](C)(C)C` [Propionyl L-carnitine, propionyl L-carnitine], in data set [1], the “Plasma HDL” value turned out to be 26.4 ± 3.9 mg/dL, the “Plasma LDL” value amounted to 380 ± 21.5 mg/dL and the “Plasma VLDL” value is 855 ± 32.5 mg/dL. In addition, the “modification of platelet aggregating action induced by collagen” value in data set [2] (propionyl L-carnitine 10 μg and 20 μg/ml) is on record as “did not prove capable of modifying”. In data set [3], the “biochemical and histological parameters of experimentally induced atherosclerosis” value was “capable of reducing”. Further, in data set [4], the “Number of leukocytes after 5 days” value is recorded as 6,000 ± 310; the “Number of leukocytes after 10 days” value was 5,400 ± 280; the “Number of leukocytes after 12 days” value is recorded as 2,100 ± 125; the “protective effect against leukopenia and toxicity of mitomycin C (in words)” value is “modest”. Also, in data set [4], the “% Mice surviving after 5 days” value came out at 60%, the “% Mice surviving after 10 days” value is given as 45% and the “% Mice surviving after 12 days” value turned out to be 30%. For the same molecule, in data set [5], the “protection against death by anaphylactic shock (in words)” value was “no protective effect” and the Surviving/treated animals is 2/10. The signs of toxicity result in data set [6] is given as “without any signs of toxicity”. Besides, the “anti-oedema / anti-inflammatory effect (in words)” value in data set [7] was “modest anti-oedema effect”. Besides, in data set [7] (setting [9]), the “% reduction of carrageenin-induced oedema after 1 h” value (shortened to “% reduction … after 1 h”) is given as 12 ± 0.1%, the “% reduction of carrageenin-induced oedema after 2 h” value (“% reduction … after 2 h” for short) was 10 ± 0.2% and the “% reduction of carrageenin-induced oedema after 3 h” value was found to be 6 ± 0.5%. For the same molecule, the Liver triglycerides in data set [8] is recorded as 165 ± 14.5 mg/g.
As to `O=c1c(O)c(-c2ccc(O)c(O)c2)oc2cc(O)cc(O)c12` [Quercetin, quercetin], in data set [1], the “Plasma HDL” value amounted to 28.6 ± 3.8 mg/dL, the “Plasma LDL” value was 298 ± 30.1 mg/dL and the “Plasma VLDL” value turned out to be 816 ± 37.5 mg/dL. The “reduction of collagen-induced platelet aggregation” value in data set [2] (quercetin 0.25 μg) was 50%. For the same molecule, the “biochemical and histological parameters of experimentally induced atherosclerosis” value in data set [3] is “good inhibitory activity”. In data set [4], the “Number of leukocytes after 5 days” value was 5,600 ± 480; the “Number of leukocytes after 10 days” value was 4,800 ± 410; the “Number of leukocytes after 12 days” value is listed as 2,800 ± 310; the “protective effect against leukopenia and toxicity of mitomycin C (in words)” value is listed as “modest”. For the same molecule, in data set [4], the “% Mice surviving after 5 days” value came to 70%, the “% Mice surviving after 10 days” value stood at 30% and the “% Mice surviving after 12 days” value was determined as 30%. In data set [5], the “protection against death by anaphylactic shock (in words)” value is “no protective effect” and the Surviving/treated animals is reported as 3/10. The “anti-oedema / anti-inflammatory effect (in words)” value in data set [7] is “modest anti-oedema effect”. In data set [7] (setting [10]), the “% reduction … after 1 h” value came out at 8 ± 0.6% and the “% reduction … after 2 h” value turned out to be 10 ± 0.2%. Moreover, in data set [7] (setting [9]), the “% reduction … after 1 h” value was found to be 18 ± 1.2%, the “% reduction … after 2 h” value came to 22 ± 2.5%, the “% reduction of carrageenin-induced oedema after 3 h” value is 20 ± 19% and the “% reduction of carrageenin-induced oedema after 4 h” value turned out to be 18 ± 1.5%. Also, in data set [8], the Liver triglycerides was determined as 130 ± 14.5 mg/g.
